Results reported in PubChem BioAssay (NCI).
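Following 48 hours of exposure in 96-well plates, responses at five concentrations were used to interpolate endpoints linearly. Abbreviation: GI50, concentration required for 50% inhibition of growth. Definition used: TGI = concentration required for complete inhibition of growth.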

Tests used:
Experiment in all cases: inhibition of tumour cell growth, NCI panel, 48 h
[1] = test system: CCRF-CEM leukemia
[2] = test system: SNB-75 CNS
[3] = test system: HCT-15 colon
[4] = test system: RPMI-8226 leukemia
[5] = test system: MOLT-4 leukemia
[6] = test system: LOX IMVI melanoma
[7] = test system: UACC-62 melanoma
[8] = test system: MALME-3M melanoma

SMILES	TGI [1]	TGI [2]	TGI [3]	TGI [4]	TGI [5]	TGI [6]	TGI [7]	TGI [8]	GI50 [1]	GI50 [2]	GI50 [7]	GI50 [8]	GI50 [6]	GI50 [3]	GI50 [4]	GI50 [5]
O=S(=O)(/C=C/CS(=O)(=O)c1ccccc1)c1ccccc1	> 100 µM	> 100 µM	45.6 µM	95.7 µM	74 µM	57.4 µM	52.2 µM	> 100 µM								
CC(=O)O[C@H]1CCC2[C@@H]3CCC4c5nonc5CC[C@]4(C)C3CC[C@@]21C (some centres not stated)	> 100 µM	> 100 µM	> 10 µM		> 10 µM	> 10 µM	> 100 µM	> 100 µM	> 100 µM	> 10 µM	> 100 µM	> 100 µM				
COc1ccc2nc3cc(Cl)ccc3c(SCC(=O)Nc3ccccc3-c3ccccc3NC(=O)CSc3c4ccc(Cl)cc4nc4ccc(OC)cc34)c2c1	> 100 µM	> 100 µM	> 100 µM	> 100 µM	> 100 µM	> 100 µM	> 100 µM	> 100 µM								
CCCN(CCC)C(=O)C(=O)c1c(N)[nH]n(-c2ccccc2)c1=O	> 100 µM		> 100 µM	> 100 µM	> 100 µM	> 100 µM	> 100 µM	> 100 µM								
O=C1/C(=N\O)S(=O)(=O)c2ccccc21	> 100 µM	> 100 µM	> 100 µM	> 100 µM	> 100 µM	> 100 µM	> 100 µM	> 100 µM								
NC(=O)NC12CC3CC(CC(F)(C3)C1)C2	> 100 µM	> 100 µM		> 100 µM	> 100 µM	> 100 µM	> 100 µM	> 100 µM								
CC(C)(c1ccccc1)c1ccc(Oc2ccc(C#N)c(C#N)c2)cc1	> 100 µM			> 100 µM	> 100 µM	> 100 µM	> 100 µM	> 100 µM			> 100 µM	> 100 µM	> 100 µM			
O=C(O)C(CS)NCc1c2ccccc2nc2ccccc12 (configuration not stated)	74.6 µM	> 100 µM	> 100 µM	70.3 µM	> 100 µM	> 100 µM		> 100 µM								
COC1=C(C)C(=O)c2c(cc3c(c2O)C(C)(CCC=C(C)C)C(C)O3)C1=O (configuration not stated)	> 100 µM	37.1 µM	> 57.2 µM	> 100 µM	> 100 µM	> 100 µM	97 µM	> 100 µM								
CNC(=O)OCc1c2ccncc2c(C)c2c1[nH]c1ccc(OC)cc12	1.29 µM		> 100 µM	0.668 µM	0.516 µM	> 100 µM	0.454 µM	1.87 µM								
COC(=O)C(CC1=C(O)Nc2ccccc2N1)/C(=N/NC(N)=O)C(=O)Nc1ccccc1C (configuration not stated)	48.8 µM	> 100 µM	34.1 µM	48.4 µM	> 100 µM	35 µM	> 100 µM	> 100 µM								
COc1cccc(NC(=O)CC(=O)N2N=C(N3c4ccccc4Sc4ccccc43)CC2c2ccccc2)c1 (configuration not stated)		> 100 µM	> 100 µM	> 100 µM	> 100 µM	> 100 µM	> 100 µM	> 100 µM								
CCc1ccccc1NC(=O)/C(N=O)=C(/C)O	> 100 µM	> 100 µM	> 100 µM	> 100 µM	> 100 µM	> 100 µM	> 100 µM	> 100 µM								
C[CH2][Sn]([CH2]C)([O]C(=O)c1ccccc1F)[O][Sn]([CH2]C)([CH2]C)[O]C(=O)c1ccccc1F	21.6 µM	> 57.8 µM	> 62.8 µM	> 100 µM	> 75.3 µM	37.1 µM	35.1 µM	30.4 µM	4.67 µM	25.1 µM	18.1 µM	14.9 µM	19.4 µM	34.3 µM	20.9 µM	22 µM
COc1ccc(CC2(Cc3ccc(OC)cc3)CCOC2=O)cc1	> 100 µM	48.9 µM		> 100 µM	> 100 µM		> 100 µM	> 100 µM								
CCc1cccc(C)c1NC(=O)C1=C(C)NC(C)=C(C(=O)Nc2c(C)cccc2CC)C1c1ccc2c(c1)OCO2	51.2 µM	91.9 µM		47.2 µM	72.8 µM	42.5 µM		30.5 µM								
COc1cc2c(cc1OC)[C@@H](Nc1ccc(F)cc1)C1COC(=O)[C@@H]1C2c1cc(OC)c(O)c(OC)c1 (some centres not stated)	0.846 µM	> 48 µM	> 32.1 µM	2.45 µM	0.21 µM	> 43.4 µM	19.9 µM	> 88.8 µM								
O=C(NC(=Nc1ccccc1)SCCSC(=Nc1ccccc1)NC(=O)c1cccs1)c1cccs1	> 100 µM	99.8 µM	> 100 µM	> 100 µM	> 100 µM	> 100 µM	> 100 µM	> 100 µM								
C[C@]12CCC(=O)CC1CCCC2=O (some centres not stated)	> 100 µM	> 100 µM	> 100 µM	> 100 µM	> 100 µM	> 100 µM	> 100 µM	> 100 µM								
CCN(CC)c1oc(N(CC)CC)c(C(=O)Nc2ccccn2)c(=O)c1C(C)=O	> 100 µM	> 100 µM	> 100 µM	> 100 µM	> 100 µM		> 100 µM	> 100 µM								
